The text below walks through data of ChEMBL document CHEMBL3272121, “Hypolipidemic analogues of ethyl 4-benzyloxybenzoate” (J Med Chem, 1977).

Counter-ions that a name gives are not always drawn.

Data set [1] has as its system Rattus norvegicus. Briefly: Hypolipidemic activity in CFY Sprague-Dawley rat assessed as serum cholesterol level at 0.25% dietary level administered for 7 days relative to control. It is filed as functional.
The test system of data set [2] is Rattus norvegicus. Kind of data set: Hypolipidemic activity in CFY Sprague-Dawley rat assessed as serum triglyceride level at 0.25% dietary level administered for 7 days relative to control. It is filed as functional.
For data set [3], the system named is Rattus norvegicus. Briefly: Toxicity in CFY Sprague-Dawley rat assessed as body weight gain at 0.25% dietary level administered for 7 days relative to control. The settings on record: in vivo, po, 168 h. It is filed as organism-based.
Data set [4] concerns Rattus norvegicus. Briefly: Toxicity in CFY Sprague-Dawley rat assessed as relative liver weight at 0.25% dietary level administered for 7 days relative to control. It is filed as organism-based. To be noted: in vivo, po, 168 h.
The test system of data set [5] is Liver. Briefly: Inhibition of cholesterol biosynthesis from [1-14C]acetate in rat liver slices at […] relative to control. It is filed as functional.
The subject of data set [6] is Liver. Briefly: Inhibition of fatty acid biosynthesis from [1-14C]acetate in rat liver slices at 5 X 10^-4 M relative to control. It is filed as functional.
The test system of data set [7] is Rattus norvegicus. Kind of data set: Hypolipidemic activity in CFY Sprague-Dawley rat assessed as liver lipid per gm of liver at 0.25% dietary level administered for 7 days relative to control. It is filed as functional.

With `CCOC(=O)c1ccc(OCc2cccc(C(F)(F)F)c2)cc1`, the Activity with Rattus norvegicus [1] is -11%; in the data set with Rattus norvegicus [2], 8%; in the data set on Rattus norvegicus [3] it was 12%; with Rattus norvegicus [4], 9%. In addition, the figures for the inhibition at 500 µM in the data set on Liver [5] and in the data set on Liver [6] were 99% and 92%, respectively.

Consider `CCOC(=O)c1ccc(COc2ccc(C)cc2)cc1`, for which the Activity in the data set with Rattus norvegicus [1] is reported as -20%; in the data set with Rattus norvegicus [2], -41%; in the data set with Rattus norvegicus [3], 5%; in the data set on Rattus norvegicus [4], 4%; with Rattus norvegicus [7], 13%.

As for `CCCC(C(=O)OCCN(CC)CC)(c1ccccc1)c1ccccc1` [PROADIFEN HYDROCHLORIDE], the inhibition (commonly the change of the read-out against control, counted positive when it falls) at 500 µM was found to be 86% with Liver [5] and 62% in the data set with Liver [6].

With `O=C(O)c1ccc(OCc2ccc(F)cc2)cc1`, the Activity in the data set with Rattus norvegicus [1] is -28%; with Rattus norvegicus [2] it was -49%; in the data set with Rattus norvegicus [3], -3%; with Rattus norvegicus [4], 2%; in the data set with Rattus norvegicus [7], 8%.

For `O=C([O-])c1ccc(OCc2ccccc2)cc1.[Na+]`, the Activity is given as -15% in the data set with Rattus norvegicus [1]; -38% in the data set on Rattus norvegicus [2]; -13% with Rattus norvegicus [3]; 2% in the data set with Rattus norvegicus [4]; 12% in the data set on Rattus norvegicus [7].

Take `CCOC(=O)c1ccc(OCc2ccccc2OC)cc1`: the Activity was -13% in the data set on Rattus norvegicus [1]; -42% in the data set with Rattus norvegicus [2]; -10% with Rattus norvegicus [3]; -2% in the data set with Rattus norvegicus [4]; 7% in the data set on Rattus norvegicus [7].

As for `CCc1ccc(OCc2ccccc2)cc1`, the Activity is -17% in the data set on Rattus norvegicus [1]; -57% with Rattus norvegicus [2]; -3% with Rattus norvegicus [3]; 20% with Rattus norvegicus [4]; -6% in the data set on Rattus norvegicus [7].

As for `CCOC(=O)Cc1ccc(OCc2ccccc2)cc1`, the Activity with Rattus norvegicus [1] is -18%; in the data set with Rattus norvegicus [2], -84%; in the data set with Rattus norvegicus [3], -23%; with Rattus norvegicus [4], 28%; with Rattus norvegicus [7], 65%. Also, the figures for the inhibition at 500 µM in the data set on Liver [5] and in the data set on Liver [6] were 93% and 100%, respectively.

On to `CCOC(=O)C(C)(C)Oc1ccc(Cl)cc1` [CLOFIBRATE], for which the Activity was -23% in the data set on Rattus norvegicus [1]; -31% in the data set on Rattus norvegicus [2]; 0% in the data set on Rattus norvegicus [3]; 32% with Rattus norvegicus [4]; 3% in the data set on Rattus norvegicus [7].

As for `COC(=O)Cc1ccc(OCc2ccccc2)c(OC)c1`, the Activity in the data set with Rattus norvegicus [1] was -30%; with Rattus norvegicus [2], -45%; with Rattus norvegicus [3] it was -68%; with Rattus norvegicus [4], 0%; with Rattus norvegicus [7], 8%.

As to `CCOCCOC(=O)c1ccc(OCc2ccccc2)cc1`, the Activity with Rattus norvegicus [1] is recorded as -17%; with Rattus norvegicus [2] it was -51%; in the data set with Rattus norvegicus [3], 10%; with Rattus norvegicus [4] it was 10%; with Rattus norvegicus [7] it was 0%.

`CC(C)OC(=O)c1ccc(OCc2ccccc2)cc1`: the Activity in the data set with Rattus norvegicus [1] is -10%; with Rattus norvegicus [2] it was -40%; with Rattus norvegicus [3], -4%; with Rattus norvegicus [4], 13%; with Rattus norvegicus [7], -5%.

`CCOC(=O)Cc1ccc(OCc2ccc(F)cc2)cc1`: the Activity is -29% with Rattus norvegicus [1]; -71% in the data set with Rattus norvegicus [2]; 3% in the data set with Rattus norvegicus [3]; 19% with Rattus norvegicus [4]; 11% in the data set with Rattus norvegicus [7].

As for `CCOC(=O)CCCCCc1ccc(OCc2ccccc2)cc1`, the Activity was -38% in the data set with Rattus norvegicus [1]; -83% with Rattus norvegicus [2]; -7% in the data set with Rattus norvegicus [3]; 21% in the data set with Rattus norvegicus [4]; 32% in the data set on Rattus norvegicus [7].

For the molecule `CCOC(=O)c1ccc(OCc2ccc(I)cc2)cc1`, the Activity in the data set with Rattus norvegicus [1] is -18%; in the data set on Rattus norvegicus [2], -60%; in the data set with Rattus norvegicus [3], 7%; in the data set with Rattus norvegicus [4], 11%; in the data set on Rattus norvegicus [7], 3%.

As to `Cc1ccc(OCc2ccccc2)cc1`, the Activity with Rattus norvegicus [1] is given as -19%; in the data set with Rattus norvegicus [2] it was -19%; with Rattus norvegicus [3] it was -7%; in the data set with Rattus norvegicus [4], 29%. Also, the inhibition at 500 µM in the data set with Liver [5] is 67%; in the data set on Liver [6] it was 43%.

With `CCCCCCCCCc1ccc(OCc2ccccc2)cc1`, the Activity is listed as -12% with Rattus norvegicus [1], -67% in the data set on Rattus norvegicus [2], -41% in the data set with Rattus norvegicus [3] and -5% in the data set on Rattus norvegicus [4]. Moreover, the inhibition at 500 µM came to 67% with Liver [5] and 60% in the data set with Liver [6].

Regarding `CCOC(=O)c1ccc(OCc2cccc(C)c2)cc1`, the Activity in the data set with Rattus norvegicus [1] is -18%; in the data set on Rattus norvegicus [2], -54%; with Rattus norvegicus [3], -10%; with Rattus norvegicus [4], -2%. Further, the inhibition at 500 µM is 97% with Liver [5] and 82% with Liver [6].

On to `CCOC(=O)c1ccc(OCc2cccc(F)c2)cc1`, for which the Activity with Rattus norvegicus [1] is recorded as -19%; with Rattus norvegicus [2], -60%; with Rattus norvegicus [3], -1%; in the data set with Rattus norvegicus [4], -4%; with Rattus norvegicus [7], 1%.

Regarding `CCOC(=O)c1ccc(COc2ccccc2)cc1`, the Activity in the data set with Rattus norvegicus [1] is -25%; with Rattus norvegicus [2], -38%; in the data set with Rattus norvegicus [3] it was 8%; in the data set on Rattus norvegicus [4], 26%; in the data set on Rattus norvegicus [7], 3%.

Turning to `CCOC(=O)Cc1cccc(OCc2ccccc2OC)c1`, the Activity with Rattus norvegicus [1] is recorded as -16%; with Rattus norvegicus [2], -13%; in the data set on Rattus norvegicus [3], 17%; in the data set with Rattus norvegicus [4] it was 34%; in the data set on Rattus norvegicus [7], 9%.

Consider `CCOC(=O)Cc1ccc(OCc2cccc(F)c2)cc1`, for which the Activity was -37% in the data set on Rattus norvegicus [1]; -71% in the data set with Rattus norvegicus [2]; -17% with Rattus norvegicus [3]; 18% with Rattus norvegicus [4]; 9% in the data set with Rattus norvegicus [7].

For `CCOC(=O)Cc1ccc(OCc2ccccc2F)cc1`, the Activity in the data set on Rattus norvegicus [1] is -29%; in the data set on Rattus norvegicus [2], -64%; with Rattus norvegicus [3], -20%; with Rattus norvegicus [4], -22%; in the data set on Rattus norvegicus [7], -1%.

As for `COC(=O)c1ccc(OCc2ccccc2)cc1`, the Activity with Rattus norvegicus [1] is recorded as -19%; with Rattus norvegicus [2], -51%; in the data set on Rattus norvegicus [3] it was -14%; in the data set with Rattus norvegicus [4], 15%; in the data set with Rattus norvegicus [7], 4%.

As to `N#Cc1ccc(OCc2ccc(F)cc2)cc1`, the Activity is given as -17% in the data set on Rattus norvegicus [1]; 1% in the data set on Rattus norvegicus [2]; 6% with Rattus norvegicus [3]; 20% with Rattus norvegicus [4]; 7% with Rattus norvegicus [7].

On to `CCOC(=O)c1ccc(OCc2cc(Cl)ccc2Cl)cc1`, for which the Activity in the data set with Rattus norvegicus [1] was -25%; in the data set on Rattus norvegicus [2], -56%; in the data set on Rattus norvegicus [3], 4%; in the data set on Rattus norvegicus [4] it was 13%; in the data set with Rattus norvegicus [7], 22%.

In the case of `COc1cc(C=O)ccc1OCc1ccccc1`, the Activity with Rattus norvegicus [1] is on record as -23%; with Rattus norvegicus [2] it was -18%; in the data set with Rattus norvegicus [3] it was -16%; with Rattus norvegicus [4], 0%; in the data set with Rattus norvegicus [7], 1%.

`Cc1ccc(COc2ccc(C#N)cc2)cc1`: the Activity with Rattus norvegicus [1] is -19%; with Rattus norvegicus [2], -58%; in the data set on Rattus norvegicus [3], -29%; in the data set on Rattus norvegicus [4] it was 27%; in the data set on Rattus norvegicus [7], 14%.

With `CCOC(=O)c1ccc(OCc2cccc([N+](=O)[O-])c2)cc1`, the Activity in the data set on Rattus norvegicus [1] was -7%; in the data set with Rattus norvegicus [2], -28%; with Rattus norvegicus [3], -29%; with Rattus norvegicus [4], -4%. Also, the inhibition at 500 µM in the data set with Liver [5] was determined as 54%; in the data set with Liver [6], 47%.

In the case of `CCOC(=O)c1ccc(OCc2cccc(Cl)c2)cc1`, the Activity is -19% in the data set with Rattus norvegicus [1]; -6% with Rattus norvegicus [2]; -1% in the data set on Rattus norvegicus [3]; 10% in the data set on Rattus norvegicus [4]; -2% with Rattus norvegicus [7].

For `O=C(OCc1ccccc1)c1ccc(OCc2ccccc2)cc1`, the Activity with Rattus norvegicus [1] is recorded as -21%; in the data set with Rattus norvegicus [2] it was -50%; in the data set with Rattus norvegicus [3] it was 6%; in the data set on Rattus norvegicus [4], 6%; in the data set on Rattus norvegicus [7], 7%.

Consider `N#Cc1ccc(OCc2ccc(Cl)c(Cl)c2)cc1`, for which the Activity in the data set with Rattus norvegicus [1] was -19%; in the data set on Rattus norvegicus [2], -6%; with Rattus norvegicus [3], -9%; in the data set on Rattus norvegicus [4] it was 18%; in the data set with Rattus norvegicus [7], 8%.

`COC(=O)CCc1ccc(OCc2ccccc2)cc1`: the Activity is recorded as -16% with Rattus norvegicus [1]; -45% in the data set on Rattus norvegicus [2]; -3% in the data set with Rattus norvegicus [3]; 18% in the data set on Rattus norvegicus [4]; 3% in the data set on Rattus norvegicus [7].

For the molecule `CCOC(=O)c1ccc(OCc2ccc(Cl)cc2Cl)cc1`, the Activity in the data set with Rattus norvegicus [1] was -18%; with Rattus norvegicus [2], -42%; in the data set on Rattus norvegicus [3], -15%; in the data set with Rattus norvegicus [4], -2%; in the data set with Rattus norvegicus [7], 8%.

As to `CCOC(=O)c1ccc(OCc2ccc(Cl)cc2)cc1`, the Activity in the data set with Rattus norvegicus [1] is -12%; in the data set on Rattus norvegicus [2], -53%; with Rattus norvegicus [3], -7%; in the data set with Rattus norvegicus [4], 6%; with Rattus norvegicus [7] it was 10%.

On to `CCOC(=O)c1ccc(OCc2cc(C)ccc2C)cc1`, for which the Activity in the data set with Rattus norvegicus [1] is -12%; in the data set with Rattus norvegicus [2] it was -49%; in the data set on Rattus norvegicus [3], -21%; in the data set on Rattus norvegicus [4], -9%. Besides, the inhibition at 500 µM is 93% in the data set with Liver [5] and 55% in the data set on Liver [6].
